What was measured:
Assay type in all cases: in vivo
[1] = system: field corn (Zea mays L., var. Dekalb 535, CORN); experiment: Pre-emerge test, crop safety; details: pre-emerge, 14 days after application, scale 0-100
Text: (§1) A standard greenhouse herbicide activity screening system was used to evaluate the herbicidal efficacy and crop safety of these test compounds. Seven broadleaf weed species including redroot pigweed (Amaranthus retroflexus, AMARE, velvetleaf (Abutilon theophrasti, ABUTH), sicklepod (Cassia obtusifolia, CASOB), ivyleaf morningglory (Ipomoea hederacea, IPOHE), lambsquarters (Chenopodium album, CHEAL), common ragweed (Ambrosia artemisizfolia L., AMBEL), and cocklebur (Xanthium strumarium, XANST) were used as test species. Four grass weed species including green foxtail (Setaria viridis, SETVI), barnyardgrass (Echinochloa crus-galli, ECHCG), johnsongrass (Sorghum halepense, SORHA), and large crabgrass (Digitaria sanguinalis, DIGSA) were also used. In addition, three crop species, field corn (Zea mays L., var. Dekalb 535, CORN), soybean (Glycine max L., var. Pella 86, SOY), and is upland rice (Oryza sp., var. Tebonnet, RICE) were included.
(§2) All plants were grown in 10 cm square plastic pots which were filled with a sandy loam soil mix. For pre-emerge tests, seeds were planted one day prior to application of the test compounds. For post-emerge tests, seeds were planted 8-21 days prior to the test to allow emergence and good foliage development prior to application of the test substances. At the time of the post-emerge application, plants of all species were usually at the 2-3 leaf stage of development.
(§3) All test compounds Were dissolved in acetone and applied to the test units in a volume of 187 l /ha. Test materials were applied at rates ranging from 15 g ai/ha to 1000 g ai/ha using a track sprayer equipped with a TJ8001E even flow flat fan spray nozzle. Plants were arranged on a shelf so that the top of the canopy (post-emerge) or top of the soil surface (pre-emerge) was 40-45 cm below the nozzle. Pressurized air was used to force the test solution through the nozzle as it was mechanically advanced (via electrically driven chain drive) over the top of all test plants/pots. This application simulates a typical commercial field herbicide application.
(§4) In the post-emerge test, a commercial non-ionic surfactant was also included (0.25% v/v) to enhance wetting of the leaf surfaces of target plants. Immediately after application, test units of the pre-emerge applications were watered at the soil surface to incorporate the test materials. Subsequently, these test units were bottom-watered. Post-emerge test units were always bottom-watered.
(§5) At 14 days after application of the test materials, phytotoxicity ratings were recorded. A rating scale of 0-100 was used as previously described in Research Methods in Weed Science, 2nd edition, B. Truelove, Ed., Southern Weed Science Society, Auburn University, Auburn, Ala. 1977. Briefly, “0” corresponds to no damage and “100” corresponds to complete death of all plants in the test unit. This scale was used both to determine efficacy against weed species and damage to crop species. Herbicide activity data for various compounds of this invention, which are shown by compound No. in Tables 1-8, are shown in Tables 11 and 12.

[2] = system: upland rice (Oryza sp., var. Tebonnet, RICE); experiment: Pre-emerge test, crop safety; details: pre-emerge, 14 days after application, scale 0-100
Text: as §1, §2, §3, §4, §5

[3] = system: field corn (Zea mays L., var. Dekalb 535, CORN); experiment: Post-emerge test, crop safety; details: post-emerge, 14 days after application, rating scale 0-100
Text: as §1, §2, §3, §4, §5

[4] = system: upland rice (Oryza sp., var. Tebonnet, RICE); experiment: Post-emerge test, crop safety; details: post-emerge, 14 days after application, rating scale 0-100
Text: as §1, §2, §3, §4, §5

[5] = system: redroot pigweed (Amaranthus retroflexus, AMARE); experiment: Pre-emerge test, greenhouse herbicide activity screening; details: pre-emerge, 14 days after application, scale 0-100
Method in brief: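 Compounds in acetone were track-sprayed at 15-1000 g ai/ha (187 l/ha) on sandy loam pots: pre-emerge one day after seeding, post-emerge at 2-3 leaf stage with 0.25% v/v non-ionic surfactant. Phytotoxicity was rated 14 days later on a 0 (no damage) to 100 (complete death) scale.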

[6] = system: green foxtail (Setaria viridis, SETVI); experiment: Post-emerge test, greenhouse herbicide activity screening; details: post-emerge, 14 days after application, rating scale 0-100
Text: as §1, §2, §3, §4, §5

[7] = system: ivyleaf morningglory (Ipomoea hederacea, IPOHE); experiment: as above; details: post-emerge, 14 days after application, rating scale 0-100
Text: as §1, §2, §3, §4, §5

[8] = system: barnyardgrass (Echinochloa crus-galli, ECHCG); experiment: as above; details: post-emerge, 14 days after application, rating scale 0-100
Text: as §1, §2, §3, §4, §5

[9] = system: large crabgrass (Digitaria sanguinalis, DIGSA); experiment: as above; details: post-emerge, 14 days after application, rating scale 0-100
Text: as §1, §2, §3, §4, §5

[10] = system: sicklepod (Cassia obtusifolia, CASOB); experiment: as above; details: post-emerge, 14 days after application, rating scale 0-100
Text: as §1, §2, §3, §4, §5

[11] = system: velvetleaf (Abutilon theophrasti, ABUTH); experiment: as above; details: post-emerge, 14 days after application, rating scale 0-100
Text: as §1, §2, §3, §4, §5

[12] = system: redroot pigweed (Amaranthus retroflexus, AMARE); experiment: as above; details: post-emerge, 14 days after application, rating scale 0-100
Text: as §1, §2, §3, §4, §5

[13] = system: lambsquarters (Chenopodium album, CHEAL); experiment: as above; details: post-emerge, 14 days after application, rating scale 0-100
Text: as §1, §2, §3, §4, §5

[14] = system: green foxtail (Setaria viridis, SETVI); experiment: Pre-emerge test, greenhouse herbicide activity screening; details: pre-emerge, 14 days after application, scale 0-100
Text: as §1, §2, §3, §4, §5

[15] = system: ivyleaf morningglory (Ipomoea hederacea, IPOHE); experiment: as above; details: pre-emerge, 14 days after application, scale 0-100
Text: as §1, §2, §3, §4, §5

[16] = system: barnyardgrass (Echinochloa crus-galli, ECHCG); experiment: as above; details: pre-emerge, 14 days after application, scale 0-100
Text: as §1, §2, §3, §4, §5

[17] = system: large crabgrass (Digitaria sanguinalis, DIGSA); experiment: as above; details: pre-emerge, 14 days after application, scale 0-100
Text: as §1, §2, §3, §4, §5

[18] = system: sicklepod (Cassia obtusifolia, CASOB); experiment: as above; details: pre-emerge, 14 days after application, scale 0-100
Text: as §1, §2, §3, §4, §5

[19] = system: velvetleaf (Abutilon theophrasti, ABUTH); experiment: as above; details: pre-emerge, 14 days after application, scale 0-100
Text: as §1, §2, §3, §4, §5

[20] = system: lambsquarters (Chenopodium album, CHEAL); experiment: as above; details: pre-emerge, 14 days after application, scale 0-100
Text: as §1, §2, §3, §4, §5

Row | Structure (SMILES) | phytotoxicity rating CORN (crop damage) ([1]; 63 g ai/ha) | phytotoxicity rating CORN (crop damage) ([1]; 250 g ai/ha) | phytotoxicity rating RICE (crop damage) ([2]; 63 g ai/ha) | phytotoxicity rating RICE (crop damage) ([2]; 250 g ai/ha) | CORN phytotoxicity rating (crop damage) ([3]; 63 g ai/ha) | CORN phytotoxicity rating (crop damage) ([3]; 250 g ai/ha) | RICE phytotoxicity rating (crop damage) ([4]; 63 g ai/ha) | RICE phytotoxicity rating (crop damage) ([4]; 250 g ai/ha) | phytotoxicity rating AMARE ([5]; 63 g ai/ha) | phytotoxicity rating AMARE ([5]; 250 g ai/ha) | SETVI phytotoxicity rating ([6]; 63 g ai/ha) | SETVI phytotoxicity rating ([6]; 250 g ai/ha) | IPOHE phytotoxicity rating ([7]; 63 g ai/ha) | IPOHE phytotoxicity rating ([7]; 250 g ai/ha) | ECHCG phytotoxicity rating ([8]; 63 g ai/ha) | ECHCG phytotoxicity rating ([8]; 250 g ai/ha) | DIGSA phytotoxicity rating ([9]; 63 g ai/ha) | DIGSA phytotoxicity rating ([9]; 250 g ai/ha) | CASOB phytotoxicity rating ([10]; 63 g ai/ha) | CASOB phytotoxicity rating ([10]; 250 g ai/ha) | other results
1 | Cn1c(C(F)(F)F)cc(=O)n(-c2ccc(C#N)cc2NC(=O)C=Cc2ccccc2)c1=O [2-141] | 0 | 45 | 30 | 70 | 5 | 10 | 15 | 65 | 100 | 100 | 20 | 40 | 100 | 95 | 10 | 30 | 10 | 30 | 50 | 95 | ABUTH phytotoxicity rating ([11]; 63 g ai/ha): 100; ABUTH phytotoxicity rating ([11]; 250 g ai/ha): 100; AMARE phytotoxicity rating ([12]; 63 g ai/ha): 95; AMARE phytotoxicity rating ([12]; 250 g ai/ha): 95; CHEAL phytotoxicity rating ([13]; 63 g ai/ha): 95; CHEAL phytotoxicity rating ([13]; 250 g ai/ha): 100; phytotoxicity rating SETVI ([14]; 63 g ai/ha): 30; phytotoxicity rating SETVI ([14]; 250 g ai/ha): 70; phytotoxicity rating IPOHE ([15]; 63 g ai/ha): 40; phytotoxicity rating IPOHE ([15]; 250 g ai/ha): 100; phytotoxicity rating ECHCG ([16]; 63 g ai/ha): 30; phytotoxicity rating ECHCG ([16]; 250 g ai/ha): 95; phytotoxicity rating DIGSA ([17]; 63 g ai/ha): 35; phytotoxicity rating DIGSA ([17]; 250 g ai/ha): 70; phytotoxicity rating CASOB ([18]; 63 g ai/ha): 30; phytotoxicity rating CASOB ([18]; 250 g ai/ha): 90; phytotoxicity rating ABUTH ([19]; 63 g ai/ha): 100; phytotoxicity rating ABUTH ([19]; 250 g ai/ha): 100; phytotoxicity rating CHEAL ([20]; 63 g ai/ha): 100; phytotoxicity rating CHEAL ([20]; 250 g ai/ha): 100
2 | COc1c(C#N)cc(F)c(-n2c(=O)cc(C(F)(F)F)n(C)c2=O)c1NC(=O)c1ccc2ccccc2c1 [2-180] | 0 | 5 | 40 | 70 | 5 | 20 | 20 | 65 | 100 | 100 | 60 | 70 | 100 | 100 | 40 | 60 | 40 | 40 | 100 | 100 | ABUTH phytotoxicity rating ([11]; 63 g ai/ha): 100; ABUTH phytotoxicity rating ([11]; 250 g ai/ha): 100; AMARE phytotoxicity rating ([12]; 63 g ai/ha): 100; AMARE phytotoxicity rating ([12]; 250 g ai/ha): 100; CHEAL phytotoxicity rating ([13]; 63 g ai/ha): 100; CHEAL phytotoxicity rating ([13]; 250 g ai/ha): 100; phytotoxicity rating SETVI ([14]; 63 g ai/ha): 30; phytotoxicity rating SETVI ([14]; 250 g ai/ha): 90; phytotoxicity rating IPOHE ([15]; 63 g ai/ha): 60; phytotoxicity rating IPOHE ([15]; 250 g ai/ha): 100; phytotoxicity rating ECHCG ([16]; 63 g ai/ha): 10; phytotoxicity rating ECHCG ([16]; 250 g ai/ha): 80; phytotoxicity rating DIGSA ([17]; 63 g ai/ha): 20; phytotoxicity rating DIGSA ([17]; 250 g ai/ha): 90; phytotoxicity rating CASOB ([18]; 63 g ai/ha): 40; phytotoxicity rating CASOB ([18]; 250 g ai/ha): 50; phytotoxicity rating ABUTH ([19]; 63 g ai/ha): 100; phytotoxicity rating ABUTH ([19]; 250 g ai/ha): 100; phytotoxicity rating CHEAL ([20]; 63 g ai/ha): 100; phytotoxicity rating CHEAL ([20]; 250 g ai/ha): 100

— US6355799B1, “Substituted benzene compounds, process for their preparation, and herbicidal and defoliant compositions containing them” (ISK Americas Incorporated, priority 1997, dated 2002)
